{
  "source": "patent US9322034B2",
  "about": "“Compositions and methods for detecting and modulating cell death by a translation regulated gene expression system” (Wayne State University, priority 2007, dated 2016)",
  "system": "HEK293 cells expressing the TRplp-fLUC or TRdm-fLUC expression cassette",
  "experiment": "Cytotoxicity assay by Western blot, monocistronic TR-fLUC cassettes",
  "type": "cell-based, human",
  "procedure": "For this example, expression and regulation of the TRplp-EYFP, TRdm-EYFP, TRplp-fLUC, or TRdm-fLUC expression cassettes in stably transformed HEK293 cells are validated using Western blot analysis. Cell lines or pools are grown in six-well trays or 60 mm dishes to about 60% confluence and treated with complete medium supplemented with a toxic chemical. […] Control samples are treated with fresh medium. Treated and control cells were removed by pipette, collected in media, pelleted for 5 min at 800 rpm (room temperature), and either stored at −70/−80° C. or immediately processed for total proteins.\nFor protein extraction, cells are resuspended in equal volumes of Suspension Buffer (100 mM NaCl, 10 mM Tris-HCl [pH 7.6], 1 mM EDTA, 1 mg/mL aprotinin, 100 μg/mL PMSF) and 2×SDS Buffer (100 mM Tris-HCl [pH 6.8], 4% SDS, 20% glycerol, 200 mM DTT). Frozen cells are thawed on ice prior to resuspension. The extracts are homogenized by several passages through a syringe fitted with a 26 G needle. Samples are subsequently incubated at RT for 1-2 hr. Samples are transferred to −70/−80° C. for storage or applied to an SDS PAGE gel and examined by Western blot analysis.\nTo insure equal protein loading levels on Western blots, 10 μL of each protein extract are initially resolved by SDS PAGE, fixed overnight in Preblot gel fixer (25% isopropanol, 10% acetic acid), and stained in 0.05% Coomassie blue (0.05% brilliant blue R, 50% methanol, 10% acetic acid) for 20 min, RT. Gels are destained in 10% acetic acid and dried under vacuum. Using the dried gels, any necessary volume adjustment was made to samples prior to Western blotting.\nWestern blot analysis is a well established technique in the art and is summarized in the following. Following SDS PAGE gel resolution and protein transfer to a solid membrane support by electrophoresis, the membranes are dried overnight. […] Similarly, fLUC protein is detected using an anti-fLUC antibody (Sigma; 1:1000 dilution). After incubation with a primary antibody and extensive washing (1×PBS-T), proteins binding the primary antibody are detected by incubation with a horseradish peroxidase (HRP) conjugated anti-rabbit or anti-mouse antibody (Amersham; 1:5000 to 1:10000 dilution). Following incubation with the secondary antibody and extensive washing, reactive proteins are detected with the ECL reagent system (Amersham) as described by the vendor.\nFollowing treatment with toxic levels of the calcium ionophore A23187, highly significant increases in fLuc protein levels are observed in the stressed and dying cells that were not evident in untreated cultures. Individual protein bands are quantitated by densitometry on a Beckman DU7400 spectrophotometer.",
  "data": [
    {"smiles": "CNc1ccc2oc(C[C@H]3O[C@@]4(CC[C@H]3C)O[C@H]([C@H](C)C(=O)c3ccc[nH]3)[C@H](C)C[C@H]4C)nc2c1C(=O)O", "note": "[calcium ionophore A23187]", "values": [
      {"measurement": "average increase in fLuc protein levels in stressed and dying cells", "setting": "HEK293 TRdm-fLuc cells, n=6", "result": 524.3, "unit": "%"},
      {"measurement": "average increase in fLuc protein levels in stressed and dying cells", "setting": "HEK293 TRplp-fLuc expressing cells, n=5", "result": 402.8, "unit": "%"},
      {"measurement": "increases in fLUC protein levels, % of the protein levels detected in untreated TRplp-fLUC/TRdm-fLUC cells", "setting": "cell pools and lines, toxic levels (5-6.7 micromolar), densitometry of Western blot", "result": "160-800%"},
      {"measurement": "fLUC protein levels in stressed and dying TR-fLUC cells, % of the protein levels of cells expressing cap-dependent CMV-fLuc", "setting": "toxin-treated cells, FIG. 6", "result": "≤ 110", "unit": "%"}
    ]}
  ]
}
